Reference: US20110144209A1, “USE OF VASOCONSTRICTORS” (priority 2008, published 2011)

Columns and labels:
humans = settings: cited from earlier work
[1] = humans, 1.5 mg/kg, cited from earlier work
rhesus monkeys = settings: cited from earlier work
AVA = settings: Pollock et al. 1996; cited from earlier work
[2] = test system: Sprague Dawley albino rats; experiment: Anesthesia-induced hypothermia in rats, topical norepinephrine cream on tail, feet and ears (Example 2); format: in vivo, rat
Method: This experiment was similar to the experiment of Example 1, although Sprague Dawley albino rats were used. […] The test cream composition was 10% Norepinephrine vasoactive substance, 10% penetration enhancer (propylene glycol), and 80% conventional base cream.
All rats were subjected to one hour pre-anesthesia time (t=−60 to t=0), one hour anesthesia (t=0 to t=60), and 4 hours post anesthesia (t=60 to t=300). The appropriate cream was applied to the tail, feet, and ears skin surface of each rat. There were four rats in each test/control group. Vasoconstrictor cream was applied to the test group rats 3 times, at t=−60, t=−30, and t=0 min before anesthesia. Core body temperature was measured rectally. Rat tail skin temperature was measured at around the mid-length of the tail by press touching the thermometer tip to the skin surface.

[3] = test system: porcine carotid arteriovenous anastomoses; settings: porcine (De Vries et al. 1998); cited from earlier work
Male Wistar rats = test system: Male Wistar rats
Text: Although there are differences between the thermoregulatory system of rats and humans, the tails and feet pads of rats function as thermoregulatory organs in a similar fashion to human skin. The rat tail skin and feet pads are exposed and not covered by fur. By controlling the blood flow to the tail skin and feet pads, the rat controls some of its heat dissipation to the environment. Only about 30% of the rat heat loss is regulated by the tail—much less than the role of the skin in humans.
Male Wistar rats, each about 400 g mass, were divided into three groups: a control group (C) of 8 rats, a test first group (A) of 7 rats, and a third test group (B) of 5 rats. All rats had test composition applied to the tail skin and the feet pads. All experiments were conducted at 23° C. ambient room temperature. All groups went though an anesthesia period of one hour (t=0 is time of start of anesthesia), and a follow-up period of 3 hours after end of anesthesia. Core body temperature (CBT) and tail skin temperature of the rats was measured using a thermocouple-based digital thermometer with 0.1° C. sensitivity.
For test group A, the cream was identical to that used for the control group, except it contained 6 wt. % epinephrine, a vasoconstrictor. The cream for test group B was the same as that for group A, except that the cream contained 20 wt. % penetration enhancer.
The cream on both control group C and test group A was applied at two times: first, concomitantly with application of anesthesia (t=0), and again at 20 min into anesthesia (t=20 m=⅓ h). CBT and tail temperatures were measured at t=0, 20, 40, 60, 120, 180 and 240 minutes.
In test group (B), two changes were made to the experimental procedure. First, the concentration of penetration enhancer (propylene glycol) in the cream was doubled to 20 wt. %. Second, the time of first cream application was done at 30 min before anesthesia (t=−30 min) and the second cream application was given with initiation of administration of anesthetic (t=0).

pigs = settings: 6 wt.% epinephrine, 10 wt.% propylene glycol cream at t=-40 min and t=0; after 130 minutes; room 20° C.
Method: The same composition, but without the epinephrine, was prepared for use as a control. Five pigs, each weighing 55-65 kg, were divided into two groups, three in the experimental group and two in the control group. The cream was administered 40 minutes before the onset of anesthesia (t=−40 min) and again with the commencement of general anesthesia (t=0). The room temperature was 20° C., with +/−1° C. fluctuations due to the thermostat of the air conditioner. The pigs were not covered with anything other than the cream, with which there were covered over their entire skin surface. Core body temperature was measured at t=−40, 0, 30, 50, 70, 100 and 130 min.

[4] = cited from earlier work
adult male Wistar rat = settings: injection into the preoptic area of rat brain; cited from earlier work
[5] = group B: 6 wt.% epinephrine, 20 wt.% propylene glycol

Question: What does the source list for CNC(C)Cc1ccc2c(c1)OCO2 (centres unmarked) [MDMA, 3,4-methylenedioxymethamphetamine]?
Answer: hyperthermic response (humans; humans, all doses tested (up to 2.0 mg/kg), laboratory conditions (Liechti 2000)): little or no hyperthermic response; effect on core body temperature at different ambient temperatures (humans; recreational users, single exposure (Freedman et al. 2005)): produced hyperthermia regardless of ambient temperature; time of peak plasma concentration after oral administration [1]: about two; peak plasma concentration (average) ([1]; oral): 0.331 ng/mL; time to flat peak of thermoregulatory disruption effect (rhesus monkeys; monkeys, after intravenous injection): about 90 minutes; duration of flat peak of thermoregulatory disruption effect (rhesus monkeys; monkeys, intravenous injection): about 3 hours; hyperthermic rise compared to control (rhesus monkeys; rhesus monkeys, ambient temperature up to 31° C. (Banks et al. 2007)): ≤ 1 °C

Question: What does the source list for NC[C@H](O)c1ccc(O)c(O)c1 [Norepinephrine, Norepinephrine Bitartrate]?
Answer: effect on AVA (AVA): produced AVA vasoconstriction; start of difference in core body temperature, time into anesthesia ([2]; 10% norepinephrine cream): about 20 min; reversal of core and tail temperatures versus control ([2]; 10% norepinephrine cream, at about 90 min post anesthesia): the control group temperature goes above the test group temperature; start of pronounced vasoconstrictor action after first application of cream ([2]; 10% norepinephrine cream, from skin and core temperature): about 80 min; test group core body temperature higher than control group ([2]; 10% norepinephrine, 10% propylene glycol cream applied t=-60, -30, 0 min, remaining anesthesia period and 60 min post anesthesia): 1-1.5 °C

Question: With Brc1c(NC2=NCCN2)ccc2nccnc12 [UK-14304, 5-bromo-N-(4,5-dihydro-1H-imidazol-2-yl)-6-quinoxalinamine] as the compound, how does the “effect on AVA” value (AVA) read?
Answer: The value was “produced constriction of the AVA”.

Question: For c1ccc2c(c1)CC[C@H](CNCCCNC1=NCCCN1)O2 [alniditan], which “constriction of carotid arteriovenous anastomoses” value [3] is on record?
Answer: Its value is “potently constrict”.

Question: With CNC[C@H](O)c1ccc(O)c(O)c1 [epinephrine] as the compound, how does the “response time of vasoconstrictor action” value (Male Wistar rats; 6% Epinephrine cream of Example 1) read?
Answer: The value was 20 to 30 min.

Question: What about the “duration of effect of vasoconstrictor application on CBT after anesthesia” value (Male Wistar rats; group A: 6 wt.% epinephrine, 10 wt.% propylene glycol) of the same compound?
Answer: Its value is “at least 3 hours”.

Question: And the “tail temperature versus control group” value (Male Wistar rats; group A: 6 wt.% epinephrine, 10 wt.% propylene glycol, 20 minutes into the experiment)?
Answer: The value was “higher in the control group than in group A”.

Question: And the “difference in CBT between test and control group” value (Male Wistar rats; group A: 6 wt.% epinephrine, 10 wt.% propylene glycol, after 40 minutes through the remainder of the experiment (240 min))?
Answer: Its value is “one”.

Question: What about the “difference in CBT between groups A and C” value (Male Wistar rats; group A: cream with 6 wt.% epinephrine, 10 wt.% propylene glycol, applied t=0 and 20 min, first 40 minutes, 23° C. ambient) of the same compound?
Answer: Its value is “no significant difference”.

Question: What about the “time after which test group temperature rapidly falls off” value (Male Wistar rats; [5]) of the same compound?
Answer: Its value is 2 h.

Question: What about the “time from anesthesia within which the CBT difference is established” value (Male Wistar rats; [5]) of the same compound?
Answer: Its value is ≤ 20 min.

Question: What about the “difference in CBT versus control group C” value (Male Wistar rats; group B: 6 wt.% epinephrine, 20 wt.% propylene glycol, applied t=-30 min and t=0, maintained throughout anesthesia (t=60 m)) of the same compound?
Answer: The value was 2 °C.

Question: What about the “average decrease in CBT” value (pigs) of the same compound?
Answer: The value was 0.7 °C.

Question: What about the “time after which activity diminishes significantly” value ([4]; topical) of the same compound?
Answer: The value was 3 h.

Question: And the “time to initial vasoconstrictor action after application” value ([4]; topical)?
Answer: Its value is ≤ 20 min.

Question: With COc1ccc(OC)c(C(O)C(C)N)c1 (centres unmarked) [methoxamine] as the compound, how does the “effect on body temperature” value (adult male Wistar rat) read?
Answer: Its value is “resulted in hypothermia”.

Question: With CNC[C@H](O)c1cccc(O)c1 [phenylephrine] as the compound, how does the “effect on AVA” value (AVA) read?
Answer: The value was “produced AVA constriction”.

Question: What about the “time after application at which vasoconstricting effect begins” value ([4]; topical / dermal) of the same compound?
Answer: The value was “about 3 hours”.

Question: For CNS(=O)(=O)Cc1ccc2[nH]cc(CCN(C)C)c2c1 [sumatriptan], which “constriction of carotid arteriovenous anastomoses” value [3] is on record?
Answer: The value was “potently constrict”.
